The text below walks through data of ChEMBL document CHEMBL4342469, “Substituent Position of Iminocyclitols Determines the Potency and Selectivity for Gut Microbial Xenobiotic-Reactivating Enzymes” (J Med Chem, 2020).

A short description of experiment [1]: Inhibition of Clostridium perfringens GUS pre-incubated for 5 to 30 mins before 4-methylumbelliferone beta-D-glucuronide substrate addition at pH 6.7.
Experiment [2] addresses T1, Beta-glucuronidase (Bos taurus, UniProt A3KMY8).
T1 sequence (A3KMY8 whole entry): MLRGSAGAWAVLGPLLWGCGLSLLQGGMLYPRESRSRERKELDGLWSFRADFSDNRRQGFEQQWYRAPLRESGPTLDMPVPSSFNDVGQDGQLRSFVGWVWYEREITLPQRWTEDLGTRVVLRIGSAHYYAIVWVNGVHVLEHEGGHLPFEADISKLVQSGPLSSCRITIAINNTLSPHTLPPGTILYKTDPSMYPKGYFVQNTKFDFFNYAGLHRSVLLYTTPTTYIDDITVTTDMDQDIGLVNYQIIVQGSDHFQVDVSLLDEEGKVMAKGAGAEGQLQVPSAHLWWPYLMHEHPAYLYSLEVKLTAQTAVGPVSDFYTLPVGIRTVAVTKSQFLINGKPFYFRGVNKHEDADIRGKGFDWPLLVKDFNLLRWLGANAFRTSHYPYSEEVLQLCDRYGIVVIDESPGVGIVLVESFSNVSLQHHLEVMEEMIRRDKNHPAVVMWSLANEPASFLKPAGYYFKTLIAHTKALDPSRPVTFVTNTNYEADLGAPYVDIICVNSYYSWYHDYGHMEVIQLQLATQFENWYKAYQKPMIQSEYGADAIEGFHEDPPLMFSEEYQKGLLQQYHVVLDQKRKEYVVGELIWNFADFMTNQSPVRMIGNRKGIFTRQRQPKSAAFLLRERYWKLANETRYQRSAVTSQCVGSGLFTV
As to the kind of experiment: Inhibition of bovine GUS pre-incubated for 5 to 30 mins before 4-methylumbelliferone beta-D-glucuronide substrate addition at pH 6.7.

Experiment [3] is described as follows: Inhibition of Ruminococcus gnavus GUS pre-incubated for 5 to 30 mins before 4-methylumbelliferone beta-D-glucuronide substrate addition at pH […]. On the set-up: species or system Mediterraneibacter gnavus.
The target of experiment [4] is T2, Beta-glucuronidase (Escherichia coli (strain K12), UniProt P05804). As to the kind of experiment: Inhibition of Escherichia coli GUS pre-incubated for 5 to 30 mins before 4-methylumbelliferone beta-D-glucuronide substrate addition at pH 5.5.
Experiment [5] is described as follows: Inhibition of Bacteroides fragilis GUS pre-incubated for 5 to 30 mins before 4-methylumbelliferone beta-D-glucuronide substrate addition at pH 5.5.
Experiment [6] has as its target T2, Beta-glucuronidase. As to the kind of experiment: Inhibition of Escherichia coli GUS pre-incubated for 5 to 30 mins before 4-methylumbelliferone beta-D-glucuronide substrate addition at pH 6.7.
Experiment [7] is described as follows: Selectivity index, ratio of Ki for inhibition of Ruminococcus gnavus GUS pre-incubated for 5 to 30 mins before 4-methylumbelliferone beta-D-glucuronide substrate addition at pH 5.5 to Ki for inhibition of Escherichia coli GUS pre-incubated for 5 to 30 mins before 4-methylumbelliferone beta-D-glucuronide substrate addition at pH 5.5.
Experiment [8] in a line: Selectivity index, ratio of Ki for inhibition of Bacteroides fragilis GUS pre-incubated for 5 to 30 mins before 4-methylumbelliferone beta-D-glucuronide substrate addition at pH 5.5 to Ki for inhibition of Clostridium perfringens GUS pre-incubated for 5 to 30 mins before 4-methylumbelliferone beta-D-glucuronide substrate addition at pH 5.5.
The target in experiment [9] is T1, Beta-glucuronidase. As to the kind of experiment: Inhibition of bovine GUS pre-incubated for 5 to 30 mins before 4-methylumbelliferone beta-D-glucuronide substrate addition at pH 4.5.
Experiment [10] is described as follows: Inhibition of Clostridium perfringens GUS pre-incubated for 5 to 30 mins before 4-methylumbelliferone beta-D-glucuronide substrate addition at pH 5.5.
Experiment [11] in a line: Inhibition of Ruminococcus gnavus GUS pre-incubated for 5 to 30 mins before 4-methylumbelliferone beta-D-glucuronide substrate addition at pH 6.7. On the set-up: species or system Mediterraneibacter gnavus.
A short description of experiment [12]: Inhibition of Bacteroides fragilis GUS pre-incubated for 5 to 30 mins before 4-methylumbelliferone beta-D-glucuronide substrate addition at pH 6.7.
Experiment [13] has as its system Mediterraneibacter gnavus. As to the kind of experiment: Inhibition of Ruminococcus gnavus GUS pre-incubated for 5 to 30 mins before 4-methylumbelliferone beta-D-glucuronide substrate addition up to pH 6.9.
Experiment [14] deals with Bacteroides fragilis. As to the kind of experiment: Inhibition of Bacteroides fragilis GUS pre-incubated for 5 to 30 mins before 4-methylumbelliferone beta-D-glucuronide substrate addition at pH 3.6 to 6.9.
Experiment [15] has as its target Beta-glucuronidase (Escherichia coli (strain K12)) (UniProt P05804). The experiment is described as follows: Inhibition of Escherichia coli GUS pre-incubated for 5 to 30 mins before 4-methylumbelliferone beta-D-glucuronide substrate addition at pH 6.5 to 7.9.
Experiment [16] relates to Bacteroides fragilis. As to the kind of experiment: Inhibition of Bacteroides fragilis GUS pre-incubated for 5 to 30 mins before 4-methylumbelliferone beta-D-glucuronide substrate addition at pH 6.5 to 7.9.
For experiment [17], the target named is Beta-glucuronidase (Escherichia coli (strain K12)) (UniProt P05804). The experiment is described as follows: Inhibition of Escherichia coli GUS pre-incubated for 5 to 30 mins before 4-methylumbelliferone beta-D-glucuronide substrate addition at pH 3.6 to 6.9.

Calls of active or inactive are those of the source. The rule behind the calls is not given here.

T2 sequence (P05804 whole entry): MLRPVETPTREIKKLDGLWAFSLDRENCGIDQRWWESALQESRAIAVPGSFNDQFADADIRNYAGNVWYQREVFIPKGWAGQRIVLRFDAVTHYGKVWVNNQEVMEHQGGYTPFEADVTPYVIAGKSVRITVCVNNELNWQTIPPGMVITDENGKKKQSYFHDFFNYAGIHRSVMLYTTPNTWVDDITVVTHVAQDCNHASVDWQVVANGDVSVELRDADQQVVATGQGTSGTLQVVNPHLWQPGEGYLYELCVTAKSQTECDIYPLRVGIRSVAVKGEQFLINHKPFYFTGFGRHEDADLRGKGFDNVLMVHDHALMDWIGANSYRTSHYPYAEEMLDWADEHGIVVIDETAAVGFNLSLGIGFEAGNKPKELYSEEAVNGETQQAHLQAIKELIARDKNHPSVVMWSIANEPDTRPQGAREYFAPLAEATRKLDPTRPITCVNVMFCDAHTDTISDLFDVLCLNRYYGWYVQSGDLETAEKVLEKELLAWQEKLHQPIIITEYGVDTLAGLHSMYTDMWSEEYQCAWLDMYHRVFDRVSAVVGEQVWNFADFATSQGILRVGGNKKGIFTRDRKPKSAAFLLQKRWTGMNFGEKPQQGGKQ
Chain of Beta-glucuronidase (Escherichia coli (strain K12)) (P05804 whole entry, looked up): as the sequence (P05804 whole entry) above

In the case of `CCCN1C[C@@H](O)[C@H](O)[C@@H](C(=O)O)C1`, the Ki was 51.8 µM in experiment [1]; 61.2 µM in experiment [2]; 17.6 µM in experiment [3]; 59.2 µM in [4]; 38.7 µM in experiment [5]; 41.3 µM in experiment [6]. The Ki in experiment [9] was 187 µM; in experiment [10], 37.3 µM; in experiment [11], 5.45 µM; in [12], 15.5 µM. The Ratio Ki in experiment [7] was 700; in [8], 190.

Regarding `O=C(O)[C@H]1OC(=O)[C@H](O)[C@@H](O)[C@@H]1O`, the inhibition constant Ki in [3] came out at 40.8 µM; in [4], 15.8 µM; in experiment [5], 0.69 µM; in [9] it was 4.87 µM; in experiment [10] it was 4.51 µM.

For the molecule `CCC[C@@H]1NC[C@@H](O)[C@H](O)[C@H]1C(=O)O`, the Ki in [1] was found to be 0.179 µM; in experiment [2], 5.87 µM; in [3] it was 94.6 µM; in experiment [4], 0.182 µM; in experiment [5] it was 7.45 µM; in [6], 0.0737 µM. Also, the Ki turned out to be 32.2 µM in experiment [9], 0.425 µM in experiment [10], 51.8 µM in experiment [11] and 3.66 µM in [12].

On to `O=C(O)[C@H]1NC(=O)[C@H](O)[C@@H](O)[C@@H]1O`, for which the Ki in [3] is 0.28 µM; in [4] it was 0.232 µM; in experiment [5], 0.069 µM; in [9], 0.132 µM; in experiment [10], 0.101 µM.

For the molecule `O=C(O)[C@H]1CNC[C@@H](O)[C@@H]1O`, the Ki in [1] is 0.0161 µM; in experiment [2] it was 0.0122 µM; in experiment [3], 0.05 µM; in [4], 0.034 µM; in [6] it was 0.012 µM; in [9], 0.048 µM. Also, the Ki in experiment [10] stood at 0.011 µM; in experiment [11], 0.0039 µM; in experiment [12], 0.0036 µM. For the same molecule, the inhibition result in [13], in experiment [14], in experiment [15], in [16] and in experiment [17] was “Active” in each case.

Take `O=C(O)[C@H]1NC[C@H](O)[C@@H](O)[C@@H]1O`: the Ki in experiment [3] came out at 21 µM; in [4], 17.5 µM; in experiment [5], 2.41 µM; in experiment [9], 21.5 µM; in [10], 12.3 µM.

As usually defined, the Ki is a measure of affinity in units of concentration, obtained from inhibition or displacement. Lower therefore signals higher affinity.
